# Results: the supplement of paper PMC10307832
# Compound: Cc1ccc(Nc2nccc(N(C)c3ccc4c(C)n(C)nc4c3)n2)cc1S(N)(=O)=O [Pazopanib] + Nc1nc2[nH]cc(CCc3ccc(C(=O)N[C@@H](CCC(=O)O)C(=O)O)cc3)c2c(=O)[nH]1 [Pemetrexed] (partner 0.2 µM)
# Experiment: relative viability (nuclei count vs DMSO), 5 days (fraction); higher = more cells survive
# Settings: first compound 1 µM
# Outline: (§1)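 The day after seeding in 1536-well plates, lung cancer cell lines were treated by pin tool with a single drug, or with a fixed anchor-drug dose together with five library-drug doses (not always all listed) in √10 steps. After 5 days, a combined fix-and-stain solution (final 0.05% Triton X-100, 1% formaldehyde, 1 ug/ml Hoechst) was added. Nuclei counted on 4× images gave relative viability as treated counts over vehicle counts, reported as the median of duplicate plates.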
row,Cell Line,relative viability
1,NCI-H23,0.829
2,CAL-12T,1.26
3,NCI-H1651,0.583
4,EPLC-272H,0.353
5,NCI-H2228,0.333
6,NCI-H1355,1.08
7,NCI-H322M,0.658
8,NCI-H1437,0.321
9,NCI-H1755,0.42
10,NCI-H2023,0.216
11,HCC-15,0.231
12,NCI-H1944,0.603
13,PC-3 [JPC-3],1.15
14,EKVX,0.361
15,LC-2-ad,0.275

# Compound: Cc1ccc(C(=O)Nc2ccc(CN3CCN(C)CC3)c(C(F)(F)F)c2)cc1C#Cc1cnc2cccnn12 [Ponatinib] + CC1(C)CCC(c2ccc(Cl)cc2)=C(CN2CCN(c3ccc(C(=O)NS(=O)(=O)c4ccc(N[C@H](CCN5CCOCC5)CSc5ccccc5)c(S(=O)(=O)C(F)(F)F)c4)cc3)CC2)C1 [Navitoclax] (partner 0.5 µM)
# Experiment: as above
# Settings: first compound 0.002 µM
# Outline: as §1
row,Cell Line,relative viability
1,LU99A,0.715
2,BEN,0.0656
3,HARA,1.13
4,HCC-78,0.578
5,NCI-H441,0.638
6,NCI-H2009,1.12
7,A-427,0.916
8,NCI-H460,1.04
9,NCI-H1734,0.805
10,NCI-H520,0.946
11,NCI-H2405,0.855
12,SW 1573,1.02
13,NCI-H1793,0.495
14,201T,1.2
15,NCI-H1915,0.779
16,HCC-827,1.02

row,Cell Line,relative viability
1,LXF-289,0.862
2,NCI-H23,0.762
3,CAL-12T,1.07
4,NCI-H1651,1.01
5,EPLC-272H,0.989
6,NCI-H2228,1.18
7,NCI-H1355,0.984
8,NCI-H322M,1.2
9,NCI-H1437,1.06
10,NCI-H1755,0.962
11,NCI-H2023,0.968
12,HCC-15,0.671
13,NCI-H1944,1.04
14,PC-3 [JPC-3],0.792
15,EKVX,0.878
16,LC-2-ad,0.482

# Same assay, conditions: first compound 0.006325 µM
row,Cell Line,relative viability
1,LU99A,0.832
2,BEN,0.0538
3,HARA,1.14
4,HCC-78,0.725
5,NCI-H441,0.42
6,LCLC-97TM1,0.645
7,NCI-H2009,1.07
8,A-427,0.971
9,NCI-H460,1.05
10,NCI-H1734,0.828
11,NCI-H520,1.1
12,NCI-H2405,0.917
13,SW 1573,0.989
14,NCI-H1793,0.422
15,201T,1.21
16,NCI-H1915,0.795
17,HCC-827,0.971

row,Cell Line,relative viability
1,LXF-289,0.957
2,NCI-H23,0.828
3,CAL-12T,1.16
4,NCI-H1651,1.06
5,EPLC-272H,1.23
6,NCI-H2228,1.01
7,NCI-H1355,1.08
8,NCI-H322M,1.15
9,NCI-H1437,1.08
10,NCI-H1755,0.947
11,NCI-H2023,0.946
12,HCC-15,0.738
13,NCI-H1944,1.09
14,PC-3 [JPC-3],0.754
15,EKVX,0.907
16,LC-2-ad,0.419

# Same assay, conditions: first compound 0.06325 µM
row,Cell Line,relative viability
1,LU99A,0.886
2,BEN,0.0585
3,HARA,1.12
4,HCC-78,0.981
5,NCI-H441,0.554
6,NCI-H2009,1.13
7,A-427,1.07
8,NCI-H460,1.24
9,NCI-H1734,0.877
10,NCI-H520,0.922
11,NCI-H2405,0.844
12,SW 1573,1.03
13,NCI-H1793,0.54
14,201T,1.22
15,NCI-H1915,0.772
16,HCC-827,1.06

row,Cell Line,relative viability
1,LXF-289,0.935
2,NCI-H23,0.852
3,CAL-12T,1.43
4,NCI-H1651,1.25
5,EPLC-272H,1.18
6,NCI-H2228,1.43
7,NCI-H1355,1.17
8,NCI-H322M,1.3
9,NCI-H1437,1.22
10,NCI-H1755,1.02
11,NCI-H2023,1.1
12,HCC-15,0.83
13,NCI-H1944,1.2
14,PC-3 [JPC-3],0.902
15,EKVX,1.04
16,LC-2-ad,0.49

# Same assay, conditions: first compound 0.2 µM
row,Cell Line,relative viability
1,LU99A,0.77
2,BEN,0.0666
3,HARA,1.16
4,HCC-78,0.629
5,NCI-H441,0.596
6,LCLC-97TM1,0.385
7,NCI-H2009,1.13
8,A-427,0.854
9,NCI-H460,1.06
10,NCI-H1734,0.739
11,NCI-H520,0.646
12,NCI-H2405,0.62
13,SW 1573,0.901
14,NCI-H1793,0.478
15,201T,1.23
16,NCI-H1915,0.746
17,HCC-827,0.983

row,Cell Line,relative viability
1,LXF-289,0.971
2,NCI-H23,0.781
3,CAL-12T,1.24
4,NCI-H1651,1.06
5,EPLC-272H,1.05
6,NCI-H2228,0.811
7,NCI-H1355,1.08
8,NCI-H322M,0.907
9,NCI-H1437,1.08
10,NCI-H1755,0.803
11,NCI-H2023,1
12,HCC-15,0.661
13,NCI-H1944,1.02
14,PC-3 [JPC-3],0.748
15,EKVX,0.735
16,LC-2-ad,0.349

# Compound: Cc1ccc(Nc2nccc(N(C)c3ccc4c(C)n(C)nc4c3)n2)cc1S(N)(=O)=O [Pazopanib] + CC1(C)CCC(c2ccc(Cl)cc2)=C(CN2CCN(c3ccc(C(=O)NS(=O)(=O)c4ccc(N[C@H](CCN5CCOCC5)CSc5ccccc5)c(S(=O)(=O)C(F)(F)F)c4)cc3)CC2)C1 [Navitoclax] (partner 0.5 µM)
# Experiment: as above
# Settings: first compound 0.01 µM
# Outline: as §1
row,Cell Line,relative viability
1,LU99A,0.697
2,BEN,0.0655
3,HARA,1.2
4,HCC-78,0.493
5,NCI-H441,0.516
6,NCI-H2009,1.19
7,A-427,1.03
8,NCI-H460,0.849
